Read-outs that look alike come from different tables or passages of the source.
How the values were obtained:
α5β3γ2 GABAA/BzR [1] = biological target: T1, α5β3γ2 GABAA/BzR (Homo sapiens, UniProt P18507+P31644); experiment: Competition binding to HEK cell membranes, α5β3γ2; set-up: expressed in transfected cells
α3β3γ2 GABAA/BzR [2] = biological target: T2, α3β3γ2 GABAA/BzR (Homo sapiens, UniProt P18507+P34903); experiment: Competition binding to HEK cell membranes, α3β3γ2; set-up: expressed in transfected cells
α2β3γ2 GABAA/BzR [3] = biological target: T3, α2β3γ2 GABAA/BzR (Homo sapiens, UniProt P18507+P47869); experiment: Competition binding to HEK cell membranes, α2β3γ2; set-up: expressed in transfected cells
α6β3γ2 GABAA/BzR [4] = biological target: T4, α6β3γ2 GABAA/BzR (Homo sapiens, UniProt P18507+Q16445); experiment: Competition binding to HEK cell membranes, α6β3γ2; set-up: expressed in transfected cells
α1β3γ2 GABAA/BzR [5] = biological target: T5, α1β3γ2 GABAA/BzR (Homo sapiens, UniProt P14867+P18507); experiment: Competition binding to HEK cell membranes, α1β3γ2; set-up: expressed in transfected cells
α4β3γ2 GABAA/BzR = biological target: T6, α4β3γ2 GABAA/BzR (Homo sapiens, UniProt P18507+P48169); experiment: biochemical; type: binding
T6 construct: expressed in transfected cells; host or cells: LTK cells (given for XLi-093 only)

[6] = system: Bz BS of GABA(A) receptors; conditions: cited from earlier work
α6β3γ2 GABAA/BzR [7] = biological target: T4, α6β3γ2 GABAA/BzR; set-up: expressed in transfected cells; host or cells: LTK cells (given for XLi-093 only); conditions: cited from earlier work
α5β3γ2 GABAA/BzR [8] = biological target: T1, α5β3γ2 GABAA/BzR; set-up: expressed in transfected cells; host or cells: LTK cells (given for XLi-093 only); conditions: cited from earlier work
α1β3γ2 GABAA/BzR [9] = biological target: T5, α1β3γ2 GABAA/BzR; set-up: expressed in transfected cells; host or cells: LTK cells (given for XLi-093 only); conditions: cited from earlier work
α3β3γ2 GABAA/BzR [10] = biological target: T2, α3β3γ2 GABAA/BzR; set-up: expressed in transfected cells; host or cells: LTK cells (given for XLi-093 only); conditions: cited from earlier work
α2β3γ2 GABAA/BzR [11] = biological target: T3, α2β3γ2 GABAA/BzR; set-up: expressed in transfected cells; host or cells: LTK cells (given for XLi-093 only); conditions: cited from earlier work

## C#Cc1ccc2c(c1)C(c1ccccc1F)=NC(C)C(=O)N2C (stereo not drawn) [OMB-19]
α5β3γ2 GABAA/BzR [1]; read-out: Ki α5
  Ki: 3.5 nM
α3β3γ2 GABAA/BzR [2]; read-out: Ki α3
  Ki: 20 nM
α2β3γ2 GABAA/BzR [3]; read-out: Ki α2
  Ki: 4.6 nM
α6β3γ2 GABAA/BzR [4]; read-out: Ki α6
  Ki: 40 nM
α1β3γ2 GABAA/BzR [5]; read-out: Ki α1
  Ki: 22 nM
α4β3γ2 GABAA/BzR; read-out: Ki α4
  Ki: 3330 nM

## CN1Cc2c(C(=O)OC(C)(C)C)ncn2-c2ccc(C#C[Si](C)(C)C)cc2C1=O [RY-023 C22H27N3O3Si]
α5β3γ2 GABAA/BzR [1]; read-out: Ki α5
  Ki: 2.61 nM
α3β3γ2 GABAA/BzR [2]; read-out: Ki α3
  Ki: 255 nM
α2β3γ2 GABAA/BzR [3]; read-out: Ki α2
  Ki: 143 nM
α6β3γ2 GABAA/BzR [4]; read-out: Ki α6
  Ki: 58.6 nM
α1β3γ2 GABAA/BzR [5]; read-out: Ki α1
  Ki: 197 nM
α4β3γ2 GABAA/BzR; read-out: Ki α4
  Ki: 7.8 nM

## C#Cc1ccc2c(c1)C(=O)N(C)Cc1c(C(=O)OCC)ncn1-2 [RY-080 C17H15N3O3]
α5β3γ2 GABAA/BzR [1]; Ki α5
  Ki: 0.49 nM
α3β3γ2 GABAA/BzR [2]; Ki α3
  Ki: 25.8 nM
α2β3γ2 GABAA/BzR [3]; Ki α2
  Ki: 21.4 nM
α6β3γ2 GABAA/BzR [4]; Ki α6
  Ki: 28.8 nM
α1β3γ2 GABAA/BzR [5]; Ki α1
  Ki: 28.4 nM
α4β3γ2 GABAA/BzR
  Ki: 5.3 nM

## CCOC(=O)c1ncn2c1CN(C)C(=O)c1cc(F)ccc1-2 [Ro15-1788]
[6]
  modulation: antagonist

## C[Si](C)(C)C#Cc1ccc2[nH]c3cnc(C(=O)OCC(F)(F)F)cc3c2c1 [WY-B-25]
α5β3γ2 GABAA/BzR [1]; Ki α5
  Ki: 263 nM
α3β3γ2 GABAA/BzR [2]; Ki α3
  Ki: 66 nM
α6β3γ2 GABAA/BzR [7]; Figure 33, αxβ3γ2, read-out: Affinity Ki α6
  Ki: > 3000 nM
α2β3γ2 GABAA/BzR [3]; Ki α2
  Ki: 40 nM
α6β3γ2 GABAA/BzR [4]; Ki α6
  Ki: 2000 nM
α1β3γ2 GABAA/BzR [5]; Ki α1
  Ki: 7.6 nM
α4β3γ2 GABAA/BzR
  Ki: 2000 nM

## C#Cc1ccc2[nH]c3cnc(C(=O)OCC(F)(F)F)cc3c2c1 [WY-B-26-2]
α5β3γ2 GABAA/BzR [1]; Ki α5
  Ki: 124 nM
α3β3γ2 GABAA/BzR [2]; Ki α3
  Ki: 42.7 nM
α5β3γ2 GABAA/BzR [8]; read-out: Affinity Ki α5
  Ki: 124 nM
α1β3γ2 GABAA/BzR [9]; read-out: Affinity Ki α1
  Ki: 4.5 nM
α2β3γ2 GABAA/BzR [3]; Ki α2
  Ki: 44.6 nM
α3β3γ2 GABAA/BzR [10]; read-out: Affinity Ki α3
  Ki: 42.7 nM
α6β3γ2 GABAA/BzR [4]; Ki α6
  Ki: 2000 nM
α1β3γ2 GABAA/BzR [5]; Ki α1
  Ki: 4.45 nM
α2β3γ2 GABAA/BzR [11]; read-out: Affinity Ki α2
  Ki: 44.6 nM
α4β3γ2 GABAA/BzR
  Ki: 2000 nM

## CC(C)(C)OC(=O)c1cc2c(cn1)[nH]c1ccc(-c3ccco3)cc12 [WYS13]
α5β3γ2 GABAA/BzR [1]; read-out: Ki α5
  Ki: 163 nM
α3β3γ2 GABAA/BzR [2]; read-out: Ki α3
  Ki: 27.5 nM
α5β3γ2 GABAA/BzR [8]; read-out: Affinity Ki α5
  Ki: 163 nM
α1β3γ2 GABAA/BzR [9]; read-out: Affinity Ki α1
  Ki: 2.4 nM
α6β3γ2 GABAA/BzR [7]; read-out: Affinity Ki α6
  Ki: 5000 nM
α2β3γ2 GABAA/BzR [3]; read-out: Ki α2
  Ki: 13 nM
α3β3γ2 GABAA/BzR [10]; read-out: Affinity Ki α3
  Ki: 27.5 nM
α6β3γ2 GABAA/BzR [4]; read-out: Ki α6
  Ki: 5000 nM
α1β3γ2 GABAA/BzR [5]; read-out: Ki α1
  Ki: 2.44 nM
α2β3γ2 GABAA/BzR [11]; read-out: Affinity Ki α2
  Ki: 13 nM

## CC(C)(C)OC(=O)c1cc2c(cn1)[nH]c1ccc(-c3ccccc3)cc12 [WYS15]
α5β3γ2 GABAA/BzR [1]; Ki α5
  Ki: 76.5 nM
α5β3γ2 GABAA/BzR [1]; read-out: Ki α5
  Ki: 76.5 nM
α3β3γ2 GABAA/BzR [2]; Ki α3
  Ki: 44.3 nM
α3β3γ2 GABAA/BzR [2]; read-out: Ki α3
  Ki: 44.3 nM
α5β3γ2 GABAA/BzR [8]; read-out: Affinity Ki α5
  Ki: 76.5 nM
α1β3γ2 GABAA/BzR [9]; read-out: Affinity Ki α1
  Ki: 3.63 nM
α2β3γ2 GABAA/BzR [3]; Ki α2
  Ki: 2.02 nM
α2β3γ2 GABAA/BzR [3]; read-out: Ki α2
  Ki: 2.02 nM
α3β3γ2 GABAA/BzR [10]; read-out: Affinity Ki α3
  Ki: 44.3 nM
α6β3γ2 GABAA/BzR [4]; Ki α6
  Ki: 5000 nM
α1β3γ2 GABAA/BzR [5]; Ki α1
  Ki: 3.63 nM
α1β3γ2 GABAA/BzR [5]; read-out: Ki α1
  Ki: 3.63 nM
α2β3γ2 GABAA/BzR [11]; read-out: Affinity Ki α2
  Ki: 2.02 nM

## CN1Cc2c(CCl)ncn2-c2ccc(Cl)cc2C1=O [compound 5]
α5β3γ2 GABAA/BzR [8]; Figure 4, read-out: Ki α5
  Ki: 28.5 nM
α1β3γ2 GABAA/BzR [9]; Figure 4, read-out: Ki α1
  Ki: > 300 nM
α6β3γ2 GABAA/BzR [7]; Figure 4, read-out: Ki α6
  Ki: > 300 nM
α3β3γ2 GABAA/BzR [10]; Figure 4, read-out: Ki α3
  Ki: > 300 nM
α2β3γ2 GABAA/BzR [11]; Figure 4, read-out: Ki α2
  Ki: > 300 nM

## CCOCc1ncn2c1CN(C)C(=O)c1cc(Cl)ccc1-2 [compound 6]
α5β3γ2 GABAA/BzR [8]; Figure 4, read-out: Ki α5
  Ki: 82.7 nM
α1β3γ2 GABAA/BzR [9]; Figure 4, read-out: Ki α1
  Ki: > 300 nM
α6β3γ2 GABAA/BzR [7]; Figure 4, read-out: Ki α6
  Ki: > 300 nM
α3β3γ2 GABAA/BzR [10]; Figure 4, read-out: Ki α3
  Ki: > 300 nM
α2β3γ2 GABAA/BzR [11]; Figure 4, read-out: Ki α2
  Ki: > 300 nM

## C#Cc1ccc2c(c1)C(=O)N1CCC[C@H]1c1c(-c3nc(C)no3)ncn1-2 [compound 7]
α5β3γ2 GABAA/BzR [8]; Figure 4, read-out: Ki α5
  Ki: 3.7 nM
α1β3γ2 GABAA/BzR [9]; Figure 4, read-out: Ki α1
  Ki: > 89 nM

## C#Cc1ccc2c(c1)C(c1ccccc1)=NCc1c(C(=O)OCCCOC(=O)c3ncn4c3CN=C(c3ccccc3)c3cc(C#C)ccc3-4)ncn1-2 [compound 63, 1,3-Bis(8-acetylenyl-6-phenyl-4H-benzo[f]imidazo[1,5-a][1,4]diazepine-3-carboxy) propyl diester]
α5β3γ2 GABAA/BzR [1]; Ki α5
  Ki: 194 nM
α3β3γ2 GABAA/BzR [2]; Ki α3
  Ki: 272 nM
α2β3γ2 GABAA/BzR [3]; Ki α2
  Ki: 7.4 nM
α6β3γ2 GABAA/BzR [4]; Ki α6
  Ki: 5000 nM
α1β3γ2 GABAA/BzR [5]; Ki α1
  Ki: 236 nM
α4β3γ2 GABAA/BzR
  Ki: 5000 nM

## CN1C(=O)CN=C(c2ccccc2)c2cc(Cl)ccc21 [diazepam]
[6]
  modulation: agonist

## Cc1ncc2n1-c1ccc(Cl)cc1C(c1ccccc1F)=NC2 [midazolam]
[6]; Supplement Table 1
  modulation: agonist

## Cc1nnc2n1-c1ccc(Cl)cc1C(c1ccccc1Cl)=NC2 [triazolam]
[6]; Supplement Table 1
  modulation: agonist

## Cc1ccc(-c2nc3ccc(C)cn3c2CC(=O)N(C)C)cc1 [zolpidem]
[6]; Supplement Table 1
  modulation: agonist

From paper PMC4657098, “A Review of the Updated Pharmacophore for the Alpha 5 GABA(A) Benzodiazepine Receptor Model” (International Journal of Medicinal Chemistry, 2015)
